Experimental data published in patent publication US20190291112A1, “DROPLET MICROFLUIDICS FOR DRUG SCREENING” (University of Macau, priority 2018, published 2019).

Columns and labels:
Jurkat cells = test: On chip drug screening assay (ethidium homodimer 1 staining); assay type: cell-based, human; conditions: 16-24 h
Method: Jurkat E6.1 cells (ATCC® TIB-152™) and MDA-MB-231 cells (ATCC® HTB-26™) were used as models for suspended and adherent cancer cell lines respectively. Jurkat cell line was derived from human acute T cell leukemia, whereas MDA-MB-231 cell line was derived from human metastatic breast adenocarcinoma. On chip drug screening was performed using the PDMS-based microfluidic chip as described above. A 500 μL glass syringe (Hamilton, USA) and polytetrafluoroethylene (PTFE) tubings with appropriate bore (Cole Parmer, USA) was used to connect between the syringe pump (Harvard Apparatus PHD Ultra Syringe Pump, USA) and the microfluidic chip. Fluorinert® FC-40 (Sigma-Aldrich, USA) supplemented with 2% 008-Fluorosurfactant (Ran Biotechnologies, USA) was used as oil phase; relevant cell culture medium, supplemented with 1% (w/v) methyl cellulose (Sigma-Aldrich, USA) was used as aqueous phase. Cells treated with 0.1% dimethyl sulfoxide (DMSO) were used as negative control. […] Next, […], cell-drug mixtures were loaded into the tubing, consecutively segregated by oil phase at withdrawal rate of 200 μL/h by syringe pump. After loading all mixtures, the tubing was inserted into the microfluidic chip, which was back-flushed with oil phase at 500 μL/h by syringe pump. After that, the mixtures were infused at 25 μL/h by syringe pump. Finally, the inlet and outlet tubings were cut and sealed with Vaseline (Vaseline, USA). […] Brightfield and red fluorescence images (Ex. 531/40 nm, Em. 593/40 nm) were taken under 10× magnification (Life Technologies EVOS FL Imaging System, USA). […] For on chip assays, the number of cells was counted in brightfield and red fluorescence images from each well respectively.

[1] = test system: NAS1605 primary nasopharyngeal tumor sample; test: On chip drug screening of primary tumor dissociated cells; assay type: cell-based, human; conditions: NAS1605, 16-24 h, normalized to mock treatment
Method: All human studies were conducted with the approval of the Panel on Research Ethics of University of Macau and the Research Ethics Committee of Kiang Wu Hospital, according to the Materials Transfer Agreement between University of Macau and Kiang Wu Hospital. Informed consent for sampling and publication without identifiable information was obtained from all participating patients. All patient sample names were double encoded by the university and the hospital, respectively, to remove any trace of patient identity during sample collection, transfer, processing and analysis. Primary tumors were obtained from surgery conducted at Kiang Wu Hospital immediately after tumor resection. Tumor tissue was dissociated as previously described. Briefly, tumor tissue was first cut into small pieces by a scalpel, then transferred to a 50 mL conical tube containing 5 mL Digestion Buffer I (DMEM/F12 medium containing 5% FBS, 5 μg/mL insulin, 500 ng/mL hydrocortisone, 10 ng/mL epidermal growth factor (EGF), 20 ng/mL cholera toxin, 300 U/mL collagenase III and 100 U/mL hyaluronidase), and digested for no more than 12 h with shaking at 100 rpm in humidified incubator at 37° C. supplemented with 5% CO2. After spinning down at 400 g at ambient temperature for 2 min, the cells were resuspended with 2 mL Digestion Buffer II (DMEM/F12 medium containing 5 mg/mL dispase II and 0.1 mg/mL deoxyribonuclease I), followed by digestion at ambient temperature for 5 min. The cells were then washed with 10 mL HBSS (Life Technologies, USA). […]
Briefly, cells at final concentrations of 1-2×10^6 cells per mL were aliquoted in 0.2 mL PCR tubes, then mixed with corresponding drugs and 2 μM ethidium homodimer 1 (Life Technologies, USA) by manual pipetting. […] Brightfield and red fluorescence images (Ex. 531/40 nm, Em. 593/40 nm) were taken under 10× magnification (Life Technologies EVOS FL Imaging System, USA).
For on chip assays, the number of cells was counted in brightfield and red fluorescence images from each well respectively. Cell viability was calculated as follows: […]

IC50 (Jurkat cells; Homo sapiens) [µM]	Structure (SMILES)	dose dependence of normalized cell viability [1]	IC50 (Jurkat cells) [µM]
22.1	CC(C)C[C@H](NC(=O)[C@H](Cc1ccccc1)NC(=O)c1cnccn1)B(O)O [bortezomib]	dose-dependent reduction of cell viability	–
–	N.N.[Cl][Pt][Cl] [cisplatin]	–	39
